Consider eleven molecules from ChEMBL document CHEMBL1201862, “PubChem BioAssay data set” (2004).

Common to all, as to assay: DTP human tumour cell line panel, 48 h
Experiment [1] deals with BT-549.
For experiment [2], the system named is SN12C.
The test system of experiment [3] is SF-268.
Experiment [4] deals with UACC-257.
Experiment [5] relates to DU-145.
The test system of experiment [6] is SW-620.
Experiment [7] relates to SK-MEL-28.
Experiment [8] has as its system KM12.
For experiment [9], the system named is NCI/ADR-RES.
For experiment [10], the system named is SNB-19.
Experiment [11] concerns UACC-62.
The subject of experiment [12] is SF-539.
The test system of experiment [13] is SK-MEL-5.
In experiment [14] the test system is NCI-H522.
The subject of experiment [15] is OVCAR-5.
Experiment [16] deals with U-251.
Experiment [17] relates to EKVX.
Experiment [18] has as its system OVCAR-4.
Experiment [19] deals with HCT-15.
The test system of experiment [20] is RPMI-8226.

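Tested at 5 concentrations; 48 h exposure; 96-well plates; endpoints linearly interpolated, else capped at highest concentration. GI50 marks 50% less growth.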 The source made the active and inactive calls. No stated cut-off is given here; in the data, active = GI50 up to about 1.1 µM and inactive = higher.

For `Cc1ccc(C2=Nc3c(c(C)nn3-c3ccccc3)N=C(C(=O)O)C2)cc1`, the GI50 in [1], in [2], in experiment [3], in experiment [4], in [5] and in [6] was > 10 µM (inactive) in each case. For the same molecule, the GI50 in [7], in [8], in experiment [9], in experiment [10], in experiment [11] and in [12] was > 10 µM (inactive) throughout. Also, the GI50 in [13], in experiment [14], in experiment [15], in experiment [16], in [17] and in experiment [18] was > 10 µM (inactive) throughout. The same molecule registered a 50% growth inhibitory concentration (GI50) in experiment [19] above 10 µM.
Turning to `CC(C)C(N)(C(=O)O)c1ccccc1` (configuration not stated), the GI50 in [1], in experiment [2], in experiment [3], in [4], in [5] and in experiment [6] was > 100 µM (inactive) in each case. The GI50 in experiment [7], in experiment [8], in experiment [9], in experiment [10], in experiment [11] and in [13] was > 100 µM (inactive) each time. Besides, the GI50 in experiment [14] was > 100 µM (inactive); in experiment [15], > 100 µM (inactive); in [16], > 100 µM (inactive); in [17] it was > 100 µM (inactive); in [18], > 100 µM (inactive); in experiment [19] it was above 100 µM. In experiment [20], the GI50 was > 100 µM (inactive).
Turning to `O=C(COc1ccccc1)N(C(=O)N1CCN(c2ccccc2)CC1)S(=O)(=O)c1ccccc1`, the GI50 was > 100 µM (inactive) in experiment [1]; 53 µM (inactive) in experiment [2]; 60.8 µM (inactive) in [3]; > 100 µM (inactive) in experiment [4]; 98.6 µM (inactive) in experiment [5]; 42.5 µM (inactive) in experiment [6]. Further, the GI50 in experiment [7] was > 100 µM (inactive); in experiment [8], > 100 µM (inactive); in experiment [9] it was 56.8 µM (inactive); in [10] it was 83.2 µM (inactive); in experiment [11], > 100 µM (inactive); in experiment [12] it was > 100 µM (inactive). Also, the GI50 in experiment [13] is > 100 µM (inactive); in [14], 31.9 µM (inactive); in experiment [15], > 100 µM (inactive); in [16] it was 30.8 µM (inactive); in experiment [17], > 100 µM (inactive); in experiment [18] it was > 100 µM (inactive). This molecule also showed a 50% growth inhibitory concentration (GI50) in experiment [19] of 47.5 µM.
`Cc1cc2ccc(N)nc2nc1O`: the GI50 in experiment [1] was > 100 µM (inactive); in experiment [2] it was > 100 µM (inactive); in experiment [3] it was 92.9 µM (inactive); in experiment [4], > 100 µM (inactive); in [5] it was > 100 µM (inactive); in [6], > 100 µM (inactive). Also, the GI50 in experiment [8], in experiment [9], in experiment [10], in [11], in experiment [12] and in [13] was > 100 µM (inactive) throughout. Besides, the GI50 in experiment [14] is 49.2 µM (inactive); in experiment [15], > 100 µM (inactive); in [16], 99.1 µM (inactive); in experiment [17], > 100 µM (inactive); in [19] it was above 100 µM; in experiment [20], > 100 µM (inactive).
Turning to `CCc1ncnc2cc(OCC3CO3)c(OC)cc12` (configuration not stated), the GI50 in experiment [1] is 3.95 µM (inactive); in [2], 1.3 µM (inactive); in experiment [3] it was 2.64 µM (inactive); in experiment [4] it was 13.6 µM (inactive); in [5], 4.15 µM (inactive); in experiment [6], 0.735 µM (active). Moreover, the GI50 in experiment [7] is 11.7 µM (inactive); in experiment [8], 5.58 µM (inactive); in experiment [9], 7.23 µM (inactive); in experiment [10], 6.52 µM (inactive); in experiment [11], 2.86 µM (inactive); in experiment [12], 5.98 µM (inactive). Moreover, the GI50 in [13] is 6.34 µM (inactive); in experiment [14], 2.31 µM (inactive); in experiment [15], 13 µM (inactive); in [16], 4.31 µM (inactive); in experiment [17] it was 10.6 µM (inactive); in [18] it was 6.38 µM (inactive). Also, in [19], growth was halved (GI50) at 3.09 µM.
For the molecule `COc1ccc(N2CC(=O)N(C(=O)COc3ccc(OCC(=O)N4C(=O)CN(c5ccc(OC)cc5)C4=S)cc3)C2=S)cc1`, the GI50 in experiment [1] was > 100 µM (inactive); in experiment [2] it was > 100 µM (inactive); in experiment [3], > 100 µM (inactive); in experiment [4], 48.3 µM (inactive); in [5], > 100 µM (inactive); in [6], > 100 µM (inactive). For the same molecule, the GI50 is > 100 µM (inactive) in experiment [7]; 39.1 µM (inactive) in experiment [8]; > 100 µM (inactive) in [9]; > 100 µM (inactive) in experiment [10]; 70.8 µM (inactive) in [11]; 45.6 µM (inactive) in experiment [13]. The GI50 was 32.6 µM (inactive) in [14]; > 100 µM (inactive) in [15]; > 100 µM (inactive) in experiment [16]; 81.1 µM (inactive) in [17]; > 100 µM (inactive) in [18]; above 100 µM in experiment [19]. Also, the GI50 in [20] is 87.5 µM (inactive).
For the molecule `C/C(=N\N=C(\N)SB(F)F)c1ccc2ccccc2c1`, the GI50 in experiment [1] is > 100 µM (inactive); in experiment [2] it was > 100 µM (inactive); in [3] it was 86.5 µM (inactive); in experiment [4], > 100 µM (inactive); in [5], > 100 µM (inactive); in experiment [6], 71.8 µM (inactive). The GI50 in experiment [7], in [8], in experiment [9], in experiment [10], in [11] and in experiment [12] was > 100 µM (inactive) throughout. The GI50 in [13] is > 100 µM (inactive); in experiment [14] it was 25.6 µM (inactive); in experiment [15], > 100 µM (inactive); in [16], > 100 µM (inactive); in experiment [17], > 100 µM (inactive); in [18], > 100 µM (inactive). Besides, in experiment [19], halving of growth (GI50) required 95.5 µM.
Regarding `SCCCSCCSCCCSCCS`, the GI50 in experiment [1], in experiment [2], in experiment [3], in experiment [4], in experiment [5] and in experiment [6] was > 100 µM (inactive) throughout. Further, the GI50 in experiment [7], in experiment [8], in [9], in experiment [10], in experiment [11] and in experiment [12] was > 100 µM (inactive) each time. The GI50 in [13] was 91.6 µM (inactive); in experiment [14] it was > 100 µM (inactive); in experiment [15] it was > 100 µM (inactive); in experiment [16] it was > 100 µM (inactive); in [17], > 100 µM (inactive); in experiment [18] it was > 100 µM (inactive). This molecule also showed a 50% growth inhibitory concentration (GI50) in experiment [19] above 100 µM.
Take `O=C(c1ccc(Cl)cc1)N(C(=S)OC12CC3CC(CC(C3)C1)C2)c1ccccc1`: the GI50 was 43.2 µM (inactive) in experiment [1]; 45.2 µM (inactive) in [2]; 43.3 µM (inactive) in experiment [3]; 46.6 µM (inactive) in experiment [4]; 76.4 µM (inactive) in experiment [5]; 34.4 µM (inactive) in [6]. Further, the GI50 in experiment [7] was > 100 µM (inactive); in experiment [8] it was 39.1 µM (inactive); in [9] it was 36.5 µM (inactive); in experiment [10] it was 29.6 µM (inactive); in experiment [11], 40.6 µM (inactive); in [12] it was 30.7 µM (inactive). The GI50 in experiment [13] was 32 µM (inactive); in experiment [14], 21.1 µM (inactive); in experiment [15], 45.6 µM (inactive); in experiment [16], 30.2 µM (inactive); in experiment [17] it was 26.6 µM (inactive); in [18], 39.5 µM (inactive). In experiment [19], this molecule showed a GI50 of 34.6 µM.
Turning to `Nc1nccc(NCC2(CO)CCC2)n1`, the GI50 in experiment [1], in experiment [2], in experiment [3], in [4], in experiment [5] and in experiment [6] was > 100 µM (inactive) in each case. Moreover, the GI50 in experiment [7], in experiment [8], in experiment [9], in experiment [11], in experiment [12] and in experiment [13] was > 100 µM (inactive) throughout. The GI50 is > 100 µM (inactive) in experiment [14]; > 100 µM (inactive) in [15]; > 100 µM (inactive) in [16]; > 100 µM (inactive) in experiment [17]; above 100 µM in [19]; > 100 µM (inactive) in experiment [20].
`COc1cc2c(cc1OCCCCOc1cc3c(cc1OC)C(=O)N1CCC[C@H]1C(=O)N3)N=C[C@@H]1CCCN1C2=O`: the GI50 in [1] is 4.44 µM (inactive); in [2] it was 9.75 µM (inactive); in experiment [3] it was 3.82 µM (inactive); in experiment [4], 14.9 µM (inactive); in experiment [5], 17.2 µM (inactive); in experiment [6], 3.29 µM (inactive). For the same molecule, the GI50 was 14.3 µM (inactive) in experiment [7]; 5.02 µM (inactive) in experiment [8]; 13.4 µM (inactive) in experiment [9]; 8.18 µM (inactive) in experiment [10]; 3.35 µM (inactive) in experiment [11]; 4 µM (inactive) in experiment [13]. Besides, the GI50 in [14] was 1.12 µM (inactive); in experiment [15], 13.1 µM (inactive); in experiment [16], 3.93 µM (inactive); in experiment [17], 12.5 µM (inactive); in experiment [18], 13.1 µM (inactive); in experiment [19], 12.2 µM. Further, the GI50 in experiment [20] is 1.57 µM (inactive).

Broadly, the GI50 is the concentration at which growth is held to half of that of the control.
